Assay results reported in the NIST ThermoML archive (doi:10.1016/j.fluid.2006.12.011).

Assay: xn = mol fraction of the nth substance listed
Details: Liquid, Vibrating tube method

C1CC[C@H]2CCCC[C@H]2C1 [cis-decahydronaphthalene] + C1CC[C@H]2CCCC[C@@H]2C1
mass density [kg/m3]
Details	x1 = 0.2	x1 = 0.35	x1 = 0.5	x1 = 0.65	x1 = 0.8	x1 = 1
303.15 K, 100 kPa	867.4	871.5	875.5	879.2	883.4	888.5
303.15 K, 5000 kPa	870.6	874.6	878.5	882.3	886.3	891.4
303.15 K, 10000 kPa	873.8	877.7	881.6	885.3	889.4	894.4
303.15 K, 15000 kPa	876.8	880.7	884.5	888.3	892.3	897.3
303.15 K, 20000 kPa	879.7	883.6	887.5	891.2	895.2	899.9
303.15 K, 25000 kPa	882.6	886.4	890.3	894	897.9	902.8
303.15 K, 30000 kPa	885.3	889.2	893	896.7	900.6	905.5
303.15 K, 35000 kPa	888	891.8	895.6	899.3	903.2	908
303.15 K, 40000 kPa	890.7	894.5	898.2	901.9	905.7	910.6
303.15 K, 45000 kPa	893.2	896.9	900.7	904.4	908.1	913
303.15 K, 50000 kPa	895.6	899.4	903	906.7	910.5	915.3
303.15 K, 55000 kPa	898	901.7	905.4	909	912.8	917.6
303.15 K, 60000 kPa	900.3	904	907.7	911.3	915.1	919.9
303.15 K, 65000 kPa	902.6	906.3	909.9	913.6	917.3	922.1
323.15 K, 100 kPa	852.1	856.3	860.2	864.2	868.1	873.2
323.15 K, 5000 kPa	855.9	859.9	863.7	867.6	871.6	876.5
323.15 K, 10000 kPa	859.4	863.3	867.1	870.9	874.9	879.8
323.15 K, 15000 kPa	862.7	866.6	870.4	874.2	878.1	883
323.15 K, 20000 kPa	865.9	869.8	873.5	877.3	881.2	886
323.15 K, 25000 kPa	869	872.9	876.5	880.3	884.2	889
323.15 K, 30000 kPa	872	875.8	879.4	883.2	887	891.8
323.15 K, 35000 kPa	874.9	878.7	882.3	886.1	889.8	894.6
323.15 K, 40000 kPa	877.6	881.5	885.1	888.7	892.6	897.3
323.15 K, 45000 kPa	880.4	884.2	887.7	891.4	895.2	899.9
323.15 K, 50000 kPa	882.9	886.7	890.3	894	897.7	902.4
323.15 K, 55000 kPa	885.5	889.2	892.8	896.4	900.2	904.8
323.15 K, 60000 kPa	888	891.8	895.3	899	902.7	907.3
323.15 K, 65000 kPa	890.5	894.2	897.7	901.3	905	909.6
343.15 K, 100 kPa	837.2	841.1	844.9	849	853.2	857.8
343.15 K, 5000 kPa	841.2	845	848.8	852.7	857	861.5
343.15 K, 10000 kPa	845	848.9	852.5	856.5	860.6	865.1
343.15 K, 15000 kPa	848.8	852.5	856.2	860	864.2	868.6
343.15 K, 20000 kPa	852.2	855.9	859.6	863.4	867.5	871.9
343.15 K, 25000 kPa	855.6	859.3	862.9	866.7	870.7	875.1
343.15 K, 30000 kPa	858.8	862.6	866.2	870	873.9	878.3
343.15 K, 35000 kPa	862	865.6	869.2	873	876.9	881.2
343.15 K, 40000 kPa	865	868.6	872.2	875.9	879.8	884.1
343.15 K, 45000 kPa	867.9	871.6	875.1	878.8	882.6	887
343.15 K, 50000 kPa	870.8	874.4	878	881.6	885.4	889.7
343.15 K, 55000 kPa	873.6	877.1	880.6	884.3	888	892.3
343.15 K, 60000 kPa	876.2	879.7	883.1	886.9	890.6	894.9
343.15 K, 65000 kPa	878.9	882.4	885.8	889.5	893.2	897.4
